Our source for the IC50 values is patent US5270302A, “Derivatives of tetrapeptides as CCK agonists” (priority 1991, dated 1993).

Assay [1] concerns the target T1, Type-A CCK receptor (Cavia porcellus, UniProt Q63931).
T1 construct: Cortical and pancreatic membranes were prepared as described; from tissue; host or cells: guinea pig pancreas membranes
T1 sequence (Q63931 1-430): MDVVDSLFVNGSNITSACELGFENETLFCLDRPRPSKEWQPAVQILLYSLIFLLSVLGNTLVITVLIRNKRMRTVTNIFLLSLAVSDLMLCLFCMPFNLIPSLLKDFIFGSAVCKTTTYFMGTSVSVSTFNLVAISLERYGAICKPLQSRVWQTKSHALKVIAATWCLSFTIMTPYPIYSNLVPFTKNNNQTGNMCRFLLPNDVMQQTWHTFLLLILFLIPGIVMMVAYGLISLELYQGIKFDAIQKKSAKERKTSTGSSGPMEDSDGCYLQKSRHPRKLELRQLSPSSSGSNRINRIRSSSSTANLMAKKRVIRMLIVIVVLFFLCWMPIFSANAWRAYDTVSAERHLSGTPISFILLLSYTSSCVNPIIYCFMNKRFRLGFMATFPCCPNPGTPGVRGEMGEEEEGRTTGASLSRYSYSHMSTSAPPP
Kind of assay: Radioligand binding of [125I]BH-CCK-8 in guinea pig pancreatic membrane preparations. From the text:
(§1) CCK-8 [Asp-Tyr(SO3 H)-Met-Gly-Trp-Met-Asp-PheNH2 ], bestatin and phosphoramidion were purchased from Peptide International (Louisville, Ky.). EGTA (ethylene glycol-bis-(β-aminoethyl) N,N,N',N'-tetraacetic acid), HEPES (4-(2-hydroxyethyl)-1-piperazine-enthanesulfonic acid) and BSA (bovine serum albumin) were purchased from Sigma Chemical Co. (St. Louis, Mo.). [^125 I]-Bolton-Hunteer (BH-CCK-8) (specific activity, 2200 Ci/mmol) was obtained from New England Nuclear (Boston, Mass.). Male guinea pigs, 250 to 325 g, were obtained from Scientific Small Animal Laboratory and Farm (Arlington Heights, Ill.). Collagenase, code CLSPA was purchased from Worthington (Frehold, N.J.).
(§2) Protocol For Radioligand Binding Experiments in Guinea Pig Cerebral Cortical and Pancreatic Membrane Preparations
(§3) Cortical and pancreatic membranes were prepared as described (Lin and Miller; J. Pharmacol. Exp. Ther. 1985, 232:775-780,). In brief, cortex and pancreas were removed and rinsed with ice-cold saline. Visible fat and connective tissues were removed from the pancreas. […] The homogenates were entrifuged for 10 minutes at 1075×g and pellets were discarded. The supernatants were saved and centrifuged at 38,730×g for 20 minutes. The resultant pellets were rehomogenized in 25 mL of 50 mM Tris-HCl buffer with a Teflon-glass homogenizer, 5 up and down strokes. The homogenates were centrifuged again at 38,730×g for 20 minutes. Pellets werre then resuspended in 20 mM HEPES, containing 1 mM EGTA, 118 mM NaCl, 4.7 mM KCl, 5 mM MgCl2, 100 μM bestatin, 3 μM phosphoramidon, pH 7.4 at 22° C. with a Teflon-glass homogenizer, 15 up and down strokes. Resuspension volume for the cortex was 15-18 mL per gram of original wet weight and 60 mL per gram for the pancreas.
(§4) [^125 I]Bolton-Hunter CCK-8 and test compounds were diluted with HEPES-EGTA-salt buffer (see above) containing 0.5% BSA. To 1 mL Skatron polystyrene tubes were added 25 μL of test compounds, 25 μL of [^125 I]BH-CCK-8 and 200 μL of membrane suspension. The final BSA concentration was 0.1%. The cortical tissues were incubated at 30° C. for 150 minutes and pancreatic tissues were incubated at 37° C. for 150 min. Incubations were terminated by filtration using Skatron Cell Harvester and SS32 microfiber filter mats. […] IC50 s were determined from the Hill analysis.

Assay [2] has as its target T2, Type-B CCK receptor (Cavia porcellus, UniProt H0VZC5).
T2 construct: Cortical and pancreatic membranes were prepared as described; from tissue; host or cells: guinea pig cerebral cortex membranes
T2 sequence (H0VZC5 1-426): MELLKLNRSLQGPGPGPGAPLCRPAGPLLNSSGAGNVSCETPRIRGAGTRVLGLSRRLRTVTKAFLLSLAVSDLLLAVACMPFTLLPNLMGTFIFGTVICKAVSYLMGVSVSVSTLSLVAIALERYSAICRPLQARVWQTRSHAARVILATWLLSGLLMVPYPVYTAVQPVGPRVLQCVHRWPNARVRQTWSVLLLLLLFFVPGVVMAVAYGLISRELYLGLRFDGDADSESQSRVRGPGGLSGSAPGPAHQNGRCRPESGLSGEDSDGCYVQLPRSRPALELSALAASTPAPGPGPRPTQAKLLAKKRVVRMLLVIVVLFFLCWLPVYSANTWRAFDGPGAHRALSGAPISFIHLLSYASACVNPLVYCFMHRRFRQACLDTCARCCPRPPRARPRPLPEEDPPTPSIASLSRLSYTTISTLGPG
In words: Radioligand binding of [125I]BH-CCK-8 in guinea pig cerebral cortical membrane preparations.
Source text: as §1, §2, §3, §4

The mark [3] stands for this setting: guinea pig cortical membranes, 30° C., 150 minutes, read-out: IC50 (nM) 125I-BH-CCK-8 Type-B receptor.
[4] abbreviates: guinea pig pancreatic membranes, 37° C., 150 min, read-out: IC50 (nM) 125I-BH-CCK-8 Type-A receptor.

Where two headings read alike, the source gives them in different places. *1 amine or outer side, *2 acyl side, *3 side chain or, on linkers, in order; H or OH if unused. Where a SMILES comes first, the peptide text is derived from it. Side-chain parts run from the residue outwards. [ ]: non-standard residue; d: D form. The star is where a group is joined. 2Naphthoyl(6-OH) = O=C(c1ccc2cc(O)ccc2c1)*; Desaminotyrosyl = O=C(CCc1ccc(O)cc1)*; NMeF = CN[C@@H](Cc1ccccc1)C(=O)O; X11 = O=C(C=Cc1ccc(Cl)c(Cl)c1)*; NMeD = CN[C@@H](CC(=O)O)C(=O)O; NH(2-Me-phenyl) = Cc1ccccc1N*; X18 = O=C(/C=C/c1ccc(Cl)cc1)*; X14 = O=[N+]([O-])c1ccccc1N*; X8 = O=C(C=Cc1ccc(O)c(O)c1)*; X7 = Cc1ccc(/C=C/C(=O)*)cc1; X13 = O=C(C=Cc1ccc(F)cc1)*; X21 = O=C(C=Cc1cccc(O)c1)*; X1 = O=C(C=Cc1ccc(O)cc1)*; 3Abz = Nc1cccc(C(=O)O)c1; 2Abz = Nc1ccccc1C(=O)O; Boc = CC(C)(C)OC(=O)*; X24 = CC(C)c1ccccc1N*; CO = O=C([*:1])[*:2]; NHPh = c1ccc(N*)cc1; X16 = COc1ccccc1N*; X19 = Brc1ccccc1N*

`CC(C)(C)OC(=O)N[C@@H](Cc1c[nH]c2ccccc12)C(=O)N[C@@H](CCCCNC(=O)C=Cc1ccc(Cl)c(Cl)c1)C(=O)N[C@@H](CC(=O)O)C(=O)N[C@@H](Cc1ccccc1)C(N)=O` [Example 15, t-BOC-Trp-Lys(ε-N-(3,4-dichlorocinnamoyl))-Asp-PheNH2] (Boc-WK(X11)DF-NH2): the IC50 (in general, the midpoint of a concentration-inhibition curve) in assay [1] was 65 nM.

In turn, `Cc1ccccc1NC(=O)NCCCC[C@H](NC(=O)[C@H](Cc1c[nH]c2ccccc12)NC(=O)OC(C)(C)C)C(=O)N(C)[C@@H](CC(=O)O)C(=O)N[C@@H](Cc1ccccc1)C(N)=O` [Example 60, t-BOC-Trp-Lys(ε-N-(2-methylphenyl)aminocarbonyl)-(NMe)Asp-PheNH2] (Boc-WK([CO-NH(2-Me-phenyl)])[NMeD]F-NH2) displayed an IC50 in assay [1] of 4.3 nM.

With `COC(=O)c1cccc(NC(=O)NCCCC[C@H](NC(=O)[C@H](Cc2c[nH]c3ccccc23)NC(=O)OC(C)(C)C)C(=O)N[C@@H](CC(=O)O)C(=O)N[C@@H](Cc2ccccc2)C(N)=O)c1` [Example 46, t-BOC-Trp-Lys(ε-N-(3-(methoxycarbonyl)phenyl)aminocarbonyl)-Asp-PheNH2] (Boc-WK([CO-3Abz-OMe])DF-NH2), the IC50 in assay [2] (setting [3]) turned out to be 1400 nM.

Regarding `COC(=O)c1ccccc1NC(=O)NCCCC[C@H](NC(=O)[C@H](Cc1c[nH]c2ccccc12)NC(=O)OC(C)(C)C)C(=O)N[C@@H](CC(=O)O)C(=O)N[C@@H](Cc1ccccc1)C(N)=O` [Example 45, t-BOC-Trp-Lys(ε-N-(2-(methoxycarbonyl)phenyl)aminocarbonyl)-Asp-PheNH2] (Boc-WK([CO-2Abz-OMe])DF-NH2), the IC50 in assay [2] turned out to be 3000 nM.

Regarding `CC(C)c1ccccc1NC(=O)NCCCC[C@H](NC(=O)[C@H](Cc1c[nH]c2ccccc12)NC(=O)OC(C)(C)C)C(=O)N[C@@H](CC(=O)O)C(=O)N[C@@H](Cc1ccccc1)C(N)=O` [Example 41, t-BOC-Trp-Lys(ε-N-(2-isopropylphenyl)aminocarbonyl)-Asp-PheNH2] (Boc-WK([CO-X24])DF-NH2), the IC50 in assay [2] (setting [3]) was 5700 nM.

As for `CC(C)(C)OC(=O)N[C@@H](Cc1c[nH]c2ccccc12)C(=O)N[C@@H](CCCCNC(=O)C=Cc1ccc(F)cc1)C(=O)N[C@@H](CC(=O)O)C(=O)N[C@@H](Cc1ccccc1)C(N)=O` [Example 7, t-BOC-Trp-Lys(ε-N-(4-fluorocinnamoyl))-Asp-PheNH2] (Boc-WK(X13)DF-NH2), in assay [1], the IC50 was 65 nM.

In the case of `CN(C(=O)[C@H](CC(=O)O)NC(=O)[C@H](CCCCNC(=O)c1ccc2cc(O)ccc2c1)NC(=O)[C@H](Cc1c[nH]c2ccccc12)NC(=O)OC(C)(C)C)[C@@H](Cc1ccccc1)C(N)=O` [Example 19, t-BOC-Trp-Lys(ε-N-(6-hydroxy-β-naphthoyl))-Asp-(NMe)PheNH2] (Boc-WK(2Naphthoyl(6-OH))D[NMeF]-NH2), the IC50 in assay [2] (setting [3]) turned out to be 730 nM.

In turn, `CC(C)(C)OC(=O)N[C@@H](Cc1c[nH]c2ccccc12)C(=O)N[C@@H](CCCCNC(=O)C=Cc1cccc(O)c1)C(=O)N[C@@H](CC(=O)O)C(=O)N[C@@H](Cc1ccccc1)C(N)=O` [Example 5, t-BOC-Trp-Lys(ε-N-(3-hydroxycinnamoyl))-Asp-PheNH2] (Boc-WK(X21)DF-NH2) came in with an IC50 in assay [1] of 37 nM.

Turning to `CC(C)(C)OC(=O)N[C@@H](Cc1c[nH]c2ccccc12)C(=O)N[C@@H](CCCCNC(=O)Nc1ccccc1)C(=O)N[C@@H](CC(=O)O)C(=O)N[C@@H](Cc1ccccc1)C(N)=O` [Example 29, t-BOC-Trp-Lys(ε-N-(phenylaminocarbonyl))-Asp-PheNH2] (Boc-WK([CO-NHPh])DF-NH2), in assay [2] (setting [3]), the half-maximal inhibitory concentration (IC50) was 1100 nM.

`CC(C)(C)OC(=O)N[C@@H](Cc1c[nH]c2ccccc12)C(=O)N[C@@H](CCCCNC(=O)Nc1ccccc1[N+](=O)[O-])C(=O)N[C@@H](CC(=O)O)C(=O)N[C@@H](Cc1ccccc1)C(N)=O` [Example 34, t-BOC-Trp-Lys(ε-N-(2-nitrophenyl)aminocarbonyl)-Asp-PheNH2] (Boc-WK([CO-X14])DF-NH2) had an IC50 in assay [1] of 23 nM.

On to `CC(C)(C)OC(=O)N[C@@H](Cc1c[nH]c2ccccc12)C(=O)N[C@@H](CCCCNC(=O)CCc1ccc(O)cc1)C(=O)N[C@@H](CC(=O)O)C(=O)N[C@@H](Cc1ccccc1)C(N)=O` [Example 1, t-BOC-Trp-Lys(ε-N-(3-(4-hydroxyphenyl)propionyl))-Asp-PheNH2] (Boc-WK(Desaminotyrosyl)DF-NH2), for which, in assay [1], the IC50 was determined as 124 nM.

As for `Cc1ccccc1/N=C(/S)NCCCC[C@H](NC(=O)[C@H](Cc1c[nH]c2ccccc12)NC(=O)OC(C)(C)C)C(=O)N[C@@H](CC(=O)O)C(=O)N[C@@H](Cc1ccccc1)C(N)=O` [Example 38, t-BOC-Trp-Lys(ε-N-(2-methylphenyl)aminothiocarbonyl)-Asp-PheNH2], the IC50 in assay [1] was determined as 230 nM.

As to `COc1ccccc1NC(=O)NCCCC[C@H](NC(=O)[C@H](Cc1c[nH]c2ccccc12)NC(=O)OC(C)(C)C)C(=O)N[C@@H](CC(=O)O)C(=O)N[C@@H](Cc1ccccc1)C(N)=O` [Example 43, t-BOC-Trp-Lys(ε-N-(2-methoxyphenyl)aminocarbonyl)-Asp-PheNH2] (Boc-WK([CO-X16])DF-NH2), the IC50 in assay [1] (setting [4]) stood at 23 nM.

`Cc1ccc(/C=C/C(=O)NCCCC[C@H](NC(=O)[C@H](Cc2c[nH]c3ccccc23)NC(=O)OC(C)(C)C)C(=O)N[C@@H](CC(=O)O)C(=O)N[C@@H](Cc2ccccc2)C(N)=O)cc1` [Example 6, t-BOC-Trp-Lys(ε-N-(4-methylcinnamoyl))-Asp-PheNH2] (Boc-WK(X7)DF-NH2) registered an IC50 in assay [1] of 71 nM.

Compound `CN(C(=O)[C@H](CC(=O)O)NC(=O)[C@H](CCCCNC(=O)/C=C/c1ccc(Cl)cc1)NC(=O)[C@H](Cc1c[nH]c2ccccc12)NC(=O)OC(C)(C)C)[C@@H](Cc1ccccc1)C(N)=O` [Example 18, t-BOC-Trp-Lys(ε-N-(4-chlorocinnamoyl))-Asp-(NMe)PheNH2] (Boc-WK(X18)D[NMeF]-NH2) displayed an IC50 in assay [1] of 22 nM.

In the case of `CC(C)(C)OC(=O)N[C@@H](Cc1c[nH]c2ccccc12)C(=O)N[C@@H](CCCCNC(=O)Nc1ccccc1Br)C(=O)N[C@@H](CC(=O)O)C(=O)N[C@@H](Cc1ccccc1)C(N)=O` [Example 36, t-BOC-Trp-Lys(ε-N-(2-bromophenyl)aminocarbonyl)-Asp-PheNH2] (Boc-WK([CO-X19])DF-NH2), the IC50 in assay [1] was 7 nM.

`CN(C(=O)[C@H](CC(=O)O)NC(=O)[C@H](CCCCNC(=O)C=Cc1ccc(O)cc1)NC(=O)[C@H](Cc1c[nH]c2ccccc12)NC(=O)OC(C)(C)C)[C@@H](Cc1ccccc1)C(N)=O` [Example 17, t-BOC-Trp-Lys(ε-N-(4-hydroxycinnamoyl))-Asp-(NMe)PheNH2] (Boc-WK(X1)D[NMeF]-NH2): the 50% inhibitory concentration (IC50) in assay [1] (setting [4]) was 7 nM.

As to `CC(C)(C)OC(=O)N[C@@H](Cc1c[nH]c2ccccc12)C(=O)N[C@@H](CCCCNC(=O)C=Cc1ccc(O)c(O)c1)C(=O)N[C@@H](CC(=O)O)C(=O)N[C@@H](Cc1ccccc1)C(N)=O` [Example 14, t-BOC-Trp-Lys(ε-N-(3,4-dihydroxycinnamoyl))-Asp-PheNH2] (Boc-WK(X8)DF-NH2), in assay [1], the IC50 stood at 33 nM.
